From PMC7179302, “Lead Optimization of Dehydroemetine for Repositioned Use in Malaria” (Antimicrobial Agents and Chemotherapy, 2020) come the findings set out here.

SMILES strings stand for the structures. Where a name gives a salt, the structure may show the parent alone.

The subject of assay [1] is mitochondrial membrane potential of P. falciparum strain K1 trophozoites. The assay can be described thus: Rhodamine 123 staining for mitochondrial membrane potential, flow cytometry. It is filed as cell-based, Plasmodium falciparum. To be noted: deviation from infected blood without drugs. The protocol:
Changes in mitochondrial membrane potential were measured using rhodamine 123 (excitation wavelength, 511 nm; emission wavelength, 534 nm), a membrane-permeating cationic fluorescent dye ([49]), which accumulates by electrostatic attraction in the mitochondria because of its negative transmembrane potential. A change in the dye’s concentration in the mitochondria is caused by a depolarization event and can be visualized as a shift in the fluorescence intensity of rhodamine 123 ([50]). Draq5 (excitation wavelength, 647 nm; emission wavelength, >665 nm) is a far-red fluorescent DNA dye which is cell permeating and was used to distinguish the parasites in flow cytometry in the allophycocyanin (APC)-Cy7-A channel. SYBR green was not preferred for this experiment as it emits in the same channel as rhodamine 123 and would result in the overlap of emission signals. Fluorescence microscopy was used to visualize the localization of rhodamine 123 within the cytoplasm of the parasites (Fig. 9).
A decrease in fluorescence intensity measured in the fluorescein isothiocyanate (FITC)-A channel indicates a loss of mitochondrial membrane potential. Atovaquone, a known mitochondrial inhibitor, was used as a control.
Compounds were then washed away by centrifuging the cultures, and a pellet was prepared for each drug concentration. Pellets were then incubated with 1 ml of 200 nM rhodamine 123 for 1 h, followed by a further incubation with 100 μl of 5 μM Draq5 for 20 min. After a wash with PBS, the experiment was read with a flow cytometer on the FITC channel. Loss of mitochondrial membrane potential was indicated by a decrease in fluorescence intensity.

The test system of the next assay is P. falciparum strain W2. The assay can be described thus: microbe, parasite or virus in culture. To be noted: Plasmodium falciparum, W2, read-out: IC50 (μM) W2. It is filed as cell-based. The method, then: (§1) The cross-resistance assay used relies on the parasites’ incorporation of labeled 3H-hypoxanthine, which is proportional to P. falciparum growth. In vitro cross-resistance of the compounds is measured as the ratio between the IC50 for the tested P. falciparum strain and the IC50 for strain 3D7A. Every replicate from a multidrug-resistant (MDR) strain involved a simultaneous determination using a 3D7A replicate to avoid any artifact linked to experimental conditions.
(§2) The three strains used for the cross-resistance assay were 3D7A, Dd2, and W2, based on their resistance profiles; the assay was carried out by GSK, Tres Cantos. Strain 3D7A is chloroquine sensitive, strain Dd2 is resistant to chloroquine, mefloquine, and pyrimethamine ([57]), and strain W2 is resistant to chloroquine, quinine, pyrimethamine, cycloguanil, and sulfadoxine (from the Malaria Research and Reference Reagent Resource Center [MR4]) ([58]). A culture of red blood cells (RBCs) parasitized by the corresponding strain (0.5% parasitemia, 2% hematocrit) in RPMI 1640, […], and 5 μM hypoxanthine was exposed to 9 dilutions (3-fold serial dilutions) of the compound starting at 5 μM. One hundred microliters of culture volume was plated in 96-well flat-bottom microtiter plates with 0.5 μl drug (200× stock in DMSO). Plates were incubated for 24 h at 37°C, 5% CO2, 5% O2, 90% N2. Next, 3H-hypoxanthine was added and plates were incubated for another 24-h period. After that, parasites were harvested on a glass fiber filter using a TomTec cell harvester 96. Filters were dried, and melt-on scintillator sheets were used to determine the incorporation of 3H-hypoxanthine. Radioactivity was measured using a MicroBeta counter. […] IC50 values were determined using the Grafit 7 program ([41]).

The next assay relates to P. falciparum strain Dd2. The assay can be described thus: microbe, parasite or virus in culture. The class given is cell-based. To be noted: Plasmodium falciparum, DD2, read-out: IC50 (μM) Dd2. The protocol:
as §1, §2

Assay [2] concerns female gametocytes in P. falciparum strain NF54. The assay can be described thus: Dual gamete formation assay, female gametocytes (Pfs25 expression). To be noted: Plasmodium falciparum, 48 h incubation. The class given is cell-based. The method, then:
A bioassay was performed to assess the malaria transmission-blocking potential of compounds on P. falciparum strain NF54 by estimating their ability to prevent male mature gametocytes from progressing to male microgametes or/and to inhibit female gamete activation, as indicators of gametocyte functionality. The NF54 strain was selected for its increased ability to produce gametocytes under in vitro conditions ([45]). The activation of male gametocytes into mature microgametes is evaluated by the process of exflagellation (extrusion of rapidly waving flagellum-like microgametes from the infected erythrocyte). The activation of female gametocytes is evaluated based on the specific expression of the P. falciparum s25 (Pfs25) protein at the surface of the female activated gametes ([46]). […]
Asexual cultures of P. falciparum strain NF54 parasites were used to seed gametocyte cultures at 0.5% parasitemia, 4% hematocrit in a 50-ml total volume under 3% O2, 5% CO2, 92% N2 gas. […] Plates were analyzed to detect exflagellation centers. […] Then, plates were analyzed to detect female activated gametes. Activation of male gametes was detected based on light changes provoked by flagellar movements that caused movement of surrounding cells. A 10-frame video was taken and then analyzed to determine these changes in cell position based on changes in pixels. […]

For `CCC1=C(C[C@H]2NCCc3cc(OC)c(OC)cc32)C[C@H]2c3cc(OC)c(OC)cc3CCN2C1` [(−)-R,S-dehydroemetine, (S)-2-((R)-6,7-dimethoxy-1,2,3,4-tetrahydro-isoquinolin-1-ylmethyl)-3-ethyl-9,10-dimethoxy-1,6,7,11b-tetrahydro-4H-pyrido[2,1-a]isoquinoline * dihydrobromide], the “Change in fluorescence intensity (FITC-A mean) of rhodamine 123” value in assay [1] (at 10× IC50, 2 h) turned out to be 32.98%; in assay [1] (at IC50, 2 h), 26.76%. Besides, the IC50 in the assay with P. falciparum strain W2 came out at 0.168 µM; in the assay with P. falciparum strain Dd2, 0.177 µM; in assay [2], 1.04 µM.
For `CCC1=C(C[C@@H]2NCCc3cc(OC)c(OC)cc32)C[C@H]2c3cc(OC)c(OC)cc3CCN2C1` [(−)-S,S-dehydroisoemetine, (S)-2-((S)-6,7-dimethoxy-1,2,3,4-tetrahydro-isoquinolin-1-ylmethyl)-3-ethyl-9,10-dimethoxy-1,6,7,11b-tetrahydro-4H-pyrido[2,1-a]isoquinoline * dihydrobromide], the IC50 in assay [2] is > 10 µM.

For orientation: IC50 means the concentration that gives 50% inhibition.
